Measurements from patent publication US9839618B2, “Compositions and methods relating to proliferative diseases” (The Penn State Research Foundation, priority 2010, dated 2017).

Assays:
Type in all cases: in vivo, mice
[1] = test system: UACC 903 human melanoma cell tumors; assay: Melanoma xenograft tumor development, UACC 903
Method: (§1) The efficacy of leelamine for inhibiting melanoma tumor development is evaluated on preexisting tumors formed following subcutaneous injection of cancer cells into nude mice. Tumor kinetics are measured by subcutaneous injection of 1.0×10^6 UACC 903 or 1205 Lu cells in 0.2 mL of DMEM supplemented with 10% FBS subcutaneously injected above both left and right rib cages of 3- to 4-wk-old female athymic nude-Foxn1^nu mice (Harlan Laboratories, Indianapolis, Ind.). Six days later, when a fully vascularized tumor (50-75 mm^3) has formed, mice are randomly divided into DMSO vehicle control and experimental groups (5 mice/group; 2 tumors/mouse) and treated intraperitoneally with 2.5-7.5 mg/kg body weight leelamine daily for 3-4 weeks. Body weight (grams) and dimensions of the developing tumors (mm^3) are measured at the time of drug treatment as described in Sharma, A. et al., Clin Cancer Res, 2009, 15:1674-85; and Madhunapantula, S. V. et al., Mol Cancer Ther, 2008, 7:1297-308.
In this example, leelamine (40, 60, or 80 mg/kg body weight) is administered orally to 4-6 weeks old nude mice bearing UACC903 melanoma cell tumors (50-100 mm^3). Sizes of developing tumors are measured. […] Values±S.E.M. (n=5)
Tumor kinetics are measured by subcutaneous injection of 1.0×10^6 UACC 903 or 1205 Lu cells in 0.2 mL of DMEM supplemented with 10% FBS subcutaneously injected above both left and right rib cages of 3- to 4-wk-old female athymic nude-Foxn1^nu mice (Harlan Laboratories, Indianapolis, Ind.). Six days later, when a fully vascularized tumor (50-75 mm^3) has formed, mice are randomly divided into control and experimental groups (5 mice/group; 2 tumors/mouse) and treated with 30-mg/kg body weight of empty liposome vehicle, abietic acid liposomes or Nanolipolee-007 intravenously each day for 3-4 weeks. Body weight (grams) and dimensions of the developing tumors (mm^3) are measured at the time of drug treatment.

[2] = test system: 1205 Lu human melanoma cell tumors; assay: Melanoma xenograft tumor development, 1205 Lu; details: intraperitoneally 2.5-7.5 mg/kg daily for 3-4 weeks, compared to DMSO vehicle
Method: as §1
Tumor kinetics are measured by subcutaneous injection of 1.0×10^6 UACC 903 or 1205 Lu cells in 0.2 mL of DMEM supplemented with 10% FBS subcutaneously injected above both left and right rib cages of 3- to 4-wk-old female athymic nude-Foxn1^nu mice (Harlan Laboratories, Indianapolis, Ind.). […] Body weight (grams) and dimensions of the developing tumors (mm^3) are measured at the time of drug treatment.

[3] = test system: UACC 903 xenograft tumors; assay: Size and time matched tumors (Ki-67, TUNEL, CD31, Western blot)
Text: Rates of cell proliferation (using Ki-67), apoptosis (using terminal deoxynucleotidyl transferase-mediated dUTP nick-end labeling) and tumor angiogenesis (using CD31 staining) are quantified in time and size matched tumors treated with leelamine compared with DMSO treated control animals to identify the underlying mechanism by which leelamine inhibits melanoma tumor development using an established method described in Sharma, A. et al., Clin Cancer Res, 2009, 15:1674-85; Madhunapantula, S. V. et al., Mol Cancer Ther, 2008, 7:1297-308; Sharma, A. et al., Cancer Res, 2006, 66:8200-9; and Stahl, J. M. et al., Cancer Res, 2003, 63:2881-90. Size and time matched tumors at each time are compared to identify the first statistically quantifiable difference(s) affected by leelamine treatment in the rates of processes regulating tumor development i.e. cell proliferation, apoptosis or vascular development. […] Cell proliferation is measured using mouse anti-human Ki-67 staining from Pharmigen (San Diego, Calif.). Apoptosis rates are scored using “terminal deoxynucleotidyl transferase-mediated dUTP nick end labeling (TUNEL)” TMR Red Apoptosis kit from Roche (Mannheim, Germany). […] The number of Ki-67 and TUNEL positive cells is quantified as the percentage of total cells in tumors using the IP Lab imaging software program. For CD31, the area occupied by blood vessels is measured. […]

CC(C)c1ccc2c(c1)CCC1[C@](C)(CN)CCC[C@]21C (stereo partly drawn) [Leelamine, [(1R,4aS)-1,4a-dimethyl-7-(propan-2-yl)-1,2,3,4,4a,9,10,10a-octahydrophenanthren-1-yl]methanamine]
body weights of tumor bearing mice ([1]; UACC 903 and 1205 Lu xenograft nude mice, i.p. 2.5-7.5 mg/kg daily): no significant differences
reduction of tumor volume, UACC 903 ([1]; intraperitoneally 2.5-7.5 mg/kg daily for 3-4 weeks, compared to DMSO vehicle): 61%
reduction of tumor growth development, oral ([1]; orally 40, 60 or 80 mg/kg, compared to DMSO control): ~45%
reduction of tumor volume, 1205 Lu [2]: 57%
reduction in proliferating cells (Ki-67) ([3]; day 11, i.p. 7.5 mg/kg daily from day 6, vs DMSO): 50%
active pAkt in tumor lysates (Western blot) ([3]; days 11, 13 and 15, treated from day 6): decreased active pAkt
